Experimental data as given in patent US11304929B2, “Tosylacetate based compounds and derivatives thereof as PHGDH inhibitors” (priority 2017, dated 2022).
Like-named read-outs stand apart in the source and are kept apart here.

Target: PHGDH (Homo sapiens (Human), UniProt O43175)
Assay: 3-Phosphoglycerate Dehydrogenase (PHGDH) Fluorescence Intensity Assay, run at two NAD/3-PG ratios: PHGDH_HIGH_NAD/3-PG (250 μM NAD/500 μM 3-PG) and PHGDH_500_NAD/3-PG (500 μM NAD/500 μM 3-PG)
Format: biochemical
[1] = 250 μM NAD/500 μM 3-PG, read-out: IC50 (PHGDH_HIGH_NAD/3-PG)
[2] = 500 μM NAD/500 μM 3-PG, read-out: IC50 (PHGDH_500_NAD/3-PG)

PHGDH, sequence (O43175 2-533 limits assumed): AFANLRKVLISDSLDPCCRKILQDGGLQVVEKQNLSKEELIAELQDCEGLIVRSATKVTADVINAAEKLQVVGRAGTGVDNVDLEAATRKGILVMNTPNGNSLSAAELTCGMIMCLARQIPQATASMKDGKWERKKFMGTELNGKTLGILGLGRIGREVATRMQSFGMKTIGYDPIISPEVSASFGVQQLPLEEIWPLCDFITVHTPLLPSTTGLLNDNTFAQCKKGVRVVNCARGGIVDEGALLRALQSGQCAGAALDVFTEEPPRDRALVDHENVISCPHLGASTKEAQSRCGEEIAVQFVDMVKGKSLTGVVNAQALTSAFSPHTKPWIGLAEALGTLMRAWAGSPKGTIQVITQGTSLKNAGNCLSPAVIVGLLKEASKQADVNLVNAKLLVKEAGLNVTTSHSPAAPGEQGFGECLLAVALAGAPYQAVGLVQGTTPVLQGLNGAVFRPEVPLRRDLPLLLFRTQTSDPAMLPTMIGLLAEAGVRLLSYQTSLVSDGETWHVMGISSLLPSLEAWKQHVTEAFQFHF

Row | SMILES | IC50 [1] | IC50 [2]
1 | Cc1cc2c(cc(C(=O)N[C@H](CO)c3ccc(S(=O)(=O)C(C)(C)C(=O)O)cc3)n2C)c(Cl)c1Cl [Example 07-014, 2-{4-[(1S)-1-[(4,5-dichloro-1,6-dimethyl-1H-indol-2-yl)formamido]-2-hydroxyethyl]benzenesulfonyl}-2-methylpropanoic acid] | 4 nM | 6 nM
2 | Cc1cc(Cl)c2cc(C(=O)N[C@H](CO)c3ccc(S(=O)(=O)CC(=O)OC(C)C)cc3)n(C)c2c1 [Example 01-038, propan-2-yl 2-{4-[(1S)-1-[(4-chloro-1,6-dimethyl-1H-indol-2-yl)formamido]-2-hydroxyethyl]benzenesulfonyl}acetate] | 261 nM | 
3 | C[C@@H](NC(=O)c1cc2cc(Cl)ccc2n1C)c1ccc(S(=O)(=O)C(C)(C)C(=O)O)cc1 [Example 07-007, 2-{4-[(1R)-1-[(5-chloro-1-methyl-1H-indol-2-yl)formamido]ethyl]benzenesulfonyl}-2-methylpropanoic acid] | 209 nM | 
4 | CCC(CC)(C(=O)O)S(=O)(=O)c1ccc([C@@H](C)NC(=O)c2cc3c(Cl)cc(C)cc3n2C)cc1 [Example 07-001, 2-{4-[(1R)-1-[(4-chloro-1,6-dimethyl-1H-indol-2-yl)formamido]ethyl]benzenesulfonyl}-2-ethylbutanoic acid] | 10 nM | 14 nM
5 | Cc1cc2c(cc(C(=O)N[C@H](CO)c3ccc(S(=O)(=O)CC(=O)OCCCO)cc3)n2C)c(Cl)c1Cl [Example 09-040, 3-hydroxypropyl 2-{4-[(1S)-1-[(4,5-dichloro-1,6-dimethyl-1H-indol-2-yl)formamido]-2-hydroxyethyl]benzenesulfonyl}acetate] |  | 190 nM
6 | COc1cc(-c2cc(C(=O)N[C@H](C)c3ccc(S(=O)(=O)CC(=O)OC(C)C)cc3)n(C)n2)ccc1F [Example 02-012, propan-2-yl 2-{4-[(1R)-1-{[3-(4-fluoro-3-methoxyphenyl)-1-methyl-1H-pyrazol-5-yl]formamido}ethyl]benzenesulfonyl}acetate] | 3720 nM | 
7 | COC(=O)C(C)(C)S(=O)(=O)c1ccc([C@@H](C)NC(=O)c2cc3c(Cl)c(Cl)c(C)nc3n2C)cc1 [Example 05-020, methyl 2-{4-[(1R)-1-({4,5-dichloro-1,6-dimethyl-1H-pyrrolo[2,3-b]pyridin-2-yl}formamido)ethyl]benzenesulfonyl}-2-methylpropanoate] | > 20000 nM | 
8 | Cc1cc2c(cc(C(=O)N[C@H](C)c3ccc(S(=O)(=O)C4CCOC4=O)cc3)n2C)c(F)c1F (stereo partly drawn) [Example 05-024, 4,5-difluoro-1,6-dimethyl-N-[(1R)-1-{4-[(2-oxooxolan-3-yl)sulfonyl]phenyl}ethyl]-1H-indole-2-carboxamide] |  | 119 nM
9 | COC(=O)CS(=O)(=O)c1ccc([C@@H](C)NC(=O)c2cc3c(Cl)cc(C)c(C)c3n2C)cc1 [Example 01-015, methyl 2-{4-[(1R)-1-[(4-chloro-1,6,7-trimethyl-1H-indol-2-yl)formamido]ethyl]benzenesulfonyl}acetate] | 583 nM | 
10 | COC(=O)C[S+]([O-])c1ccc([C@@H](C)NC(=O)c2cc3c(Cl)cc(C)cc3n2C)cc1 (stereo partly drawn) [Example 11-009, methyl 2-{4-[(1R)-1-[(4-chloro-1,6-dimethyl-1H-indol-2-yl)formamido]ethyl]benzenesulfinyl}acetate] | 612 nM | 
11 | COC(=O)CS(=O)(=O)c1ccc([C@@H](C)NC(=O)c2cc(-c3ccccc3)nn2C)cc1 [Example 02-002, methyl 2-{4-[(1R)-1-[(1-methyl-3-phenyl-1H-pyrazol-5-yl)formamido]ethyl]benzenesulfonyl}acetate] | 1360 nM | 
12 | Cc1cc2c(cc(C(=O)N[C@H](C)c3ccc(S(=O)(=O)CC(=O)OC(C)C)cc3)n2C)c(Cl)c1F [Example 01-033, propan-2-yl 2-{4-[(1R)-1-[(4-chloro-5-fluoro-1,6-dimethyl-1H-indol-2-yl)formamido]ethyl]benzenesulfonyl}acetate] | 36500 nM | 
13 | Cc1cc(Cl)c2cc(C(=O)N[C@H](C)c3ccc(S(=O)(=O)CC(=O)OC4COC4)cc3)n(C)c2c1 [Example 09-025, oxetan-3-yl 2-{4-[(1R)-1-[(4-chloro-1,6-dimethyl-1H-indol-2-yl)formamido]ethyl]benzenesulfonyl}acetate] | 72 nM | 
14 | C[C@@H](NC(=O)c1cc2c(Cl)cc(-c3cnn(C)c3)cc2n1C)c1ccc(S(=O)(=O)CC(=O)O)cc1 [Example 03-004, 2-{4-[(1R)-1-{[4-chloro-1-methyl-6-(1-methyl-1H-pyrazol-4-yl)-1H-indol-2-yl]formamido}ethyl]benzenesulfonyl}acetic acid] | 20 nM | 29 nM
15 | Cc1cc2c(cc(C(=O)N[C@H](CO)c3ccc([S+]([O-])CC(=O)OC(C)C)cc3)n2C)c(Cl)c1Cl (stereo partly drawn) [Example 13-009, propan-2-yl 2-{4-[(1S)-1-[(4,5-dichloro-1,6-dimethyl-1H-indol-2-yl)formamido]-2-hydroxyethyl]benzenesulfinyl}acetate] | 428 nM | 797 nM
16 | Cc1cc2c(cc(C(=O)N[C@H](CO)c3ccc([S@+]([O-])CC(=O)OC(C)C)cc3)n2C)c(F)c1F [Example 13-006, propan-2-yl 2-[(R)-4-[(1S)-1-[(4,5-difluoro-1,6-dimethyl-1H-indol-2-yl)formamido]-2-hydroxyethyl]benzenesulfinyl]acetate] |  | 2080 nM

Row | SMILES | IC50 [1] | IC50 [2]
17 | C[C@H](C(=O)O)S(=O)(=O)c1ccc([C@@H](C)NC(=O)c2cc3cc(Cl)ccc3n2C)cc1 [Example 07-008, (2R)-2-{4-[(1R)-1-[(5-chloro-1-methyl-1H-indol-2-yl)formamido]ethyl]benzenesulfonyl}propanoic acid] | 139 nM | 
18 | Cc1cc(Cl)c2cc(C(=O)N[C@H](C)c3ccc(S(=O)(=O)CC(=O)O)cc3)n(C)c2n1 [Example 03-015, 2-{4-[(1R)-1-({4-chloro-1,6-dimethyl-1H-pyrrolo[2,3-b]pyridin-2-yl}formamido)ethyl]benzenesulfonyl}acetic acid] | 41 nM | 
19 | Cc1cc2c(cc(C(=O)N[C@H](C)c3ccc(S(=O)(=O)C4CCOC4=O)cc3)n2C)c(Cl)c1Cl (stereo partly drawn) [Example 05-023, 4,5-dichloro-1,6-dimethyl-N-[(1R)-1-{4-[(2-oxooxolan-3-yl)sulfonyl]phenyl}ethyl]-1H-indole-2-carboxamide] |  | 119 nM
20 | COC(=O)CS(=O)(=O)c1ccc([C@@H](C)NC(=O)c2cc3c4ccccc4c(C)cc3n2C)cc1 [Example 01-010, methyl 2-{4-[(1R)-1-({3,5-dimethyl-3H-benzo[e]indol-2-yl}formamido)ethyl]benzenesulfonyl}acetate] | 943 nM | 
21 | Cc1cc(Cl)c2cc(C(=O)N[C@H](CO)c3ccc(S(=O)(=O)CC(=O)OCCO)cc3)n(C)c2c1 [Example 09-034, 2-hydroxyethyl 2-{4-[(1S)-1-[(4-chloro-1,6-dimethyl-1H-indol-2-yl)formamido]-2-hydroxyethyl]benzenesulfonyl}acetate] | 52 nM | 
22 | COC(=O)C(C)(C)S(=O)(=O)c1ccc([C@@H](C)NC(=O)c2cc3c(Cl)c(Cl)c(C)cc3n2C)cc1 [Example 05-022, methyl 2-{4-[(1R)-1-[(4,5-dichloro-1,6-dimethyl-1H-indol-2-yl)formamido]ethyl]benzenesulfonyl}-2-methylpropanoate] | 5580 nM | 
23 | Cc1cc2c(cc(C(=O)N[C@H](CO)c3ccc(S(=O)(=O)CC(=O)OCC(C)(C)O)cc3)n2C)c(Cl)c1Cl [Example 09-039, 2-hydroxy-2-methylpropyl 2-{4-[(1S)-1-[(4,5-dichloro-1,6-dimethyl-1H-indol-2-yl)formamido]-2-hydroxyethyl]benzenesulfonyl}acetate] |  | 168 nM
24 | COC(=O)CS(=O)(=O)c1ccc(CNC(=O)c2cc3c(Cl)cc(C)cc3n2C)cc1 [Example 01-030, methyl 2-(4-{[(4-chloro-1,6-dimethyl-1H-indol-2-yl)formamido]methyl}benzenesulfonyl)acetate] | 3390 nM | 
25 | C[C@@H](NC(=O)c1cc(-c2ccccc2)nn1C)c1ccc(S(=O)(=O)CC(=O)OCCN(C)C)cc1 [Example 10-002, 2-(dimethylamino)ethyl 2-{4-[(1R)-1-[(1-methyl-3-phenyl-1H-pyrazol-5-yl)formamido]ethyl]benzenesulfonyl}acetate] | 497 nM | 
26 | COC(=O)C[S@+]([O-])c1ccc([C@@H](CO)NC(=O)c2cc3c(Cl)cc(C)cc3n2C)cc1 [Example 11-008, methyl 2-[(S)-4-[(1S)-1-[(4-chloro-1,6-dimethyl-1H-indol-2-yl)formamido]-2-hydroxyethyl]benzenesulfinyl]acetate] | 120 nM | 
27 | CC(C)OC(=O)C(C)(C)S(=O)(=O)c1ccc([C@@H](C)NC(=O)c2cc(-c3ccccc3)nn2C)cc1 [Example 06-005, propan-2-yl 2-methyl-2-{4-[(1R)-1-[(1-methyl-3-phenyl-1H-pyrazol-5-yl)formamido]ethyl]benzenesulfonyl}propanoate] | 15900 nM | 
28 | Cc1cc(Cl)c2cc(C(=O)N[C@H](C)c3ccc(S(=O)(=O)CC(=O)O[C@@H]4CCOC4)cc3)n(C)c2c1 [Example 09-019, (3R)-oxolan-3-yl 2-{4-[(1R)-1-[(4-chloro-1,6-dimethyl-1H-indol-2-yl)formamido]ethyl]benzenesulfonyl}acetate] | 250 nM | 
29 | Cc1cc2c(cc(C(=O)N[C@H](CO)c3ccc(S(=O)(=O)CC(=O)OCC(C)(C)CO)cc3)n2C)c(Cl)c1Cl [Example 09-044, 3-hydroxy-2,2-dimethylpropyl 2-{4-[(1S)-1-[(4,5-dichloro-1,6-dimethyl-1H-indol-2-yl)formamido]-2-hydroxyethyl]benzenesulfonyl}acetate] |  | 419 nM
30 | Cc1cc(Cl)c2cc(C(=O)N[C@H](CO)c3ccc(S(=O)(=O)CC(=O)OC4CCOCC4)cc3)n(C)c2c1 [Example 09-028, oxan-4-yl 2-{4-[(1S)-1-[(4-chloro-1,6-dimethyl-1H-indol-2-yl)formamido]-2-hydroxyethyl]benzenesulfonyl}acetate] | 230 nM | 
31 | COC(=O)C[S@@+]([O-])c1ccc([C@@H](CO)NC(=O)c2cc3c(Cl)cc(C)cc3n2C)cc1 [Example 11-010, methyl 2-[(R)-4-[(1S)-1-[(4-chloro-1,6-dimethyl-1H-indol-2-yl)formamido]-2-hydroxyethyl]benzenesulfinyl]acetate] | 447 nM | 
